Measured values published in patent US20240124454A1, “TRICYCLIC COMPOUND AND USE THEREOF” (NANJING ZAIMING PHARMACEUTICAL CO., LTD., priority 2020, published 2024).

Tests used:
[1] = Metabolic stability in human liver microsomes; type: in vitro ADME; settings: pH 7.4, 1 μM compound, 0.5 mg/mL microsome, NADPH, read-out: Human liver microsome stability t1/2
Method: Test Example 4. Determination of Metabolic Stability of Compound of the Present Application in Liver Microsomes
The metabolic stability of the compound of the present application in liver microsomes was determined using the following method.
I. Experimental materials and instruments • 1. Human liver microsome (Corning 452117), beagle dog liver microsome (XENOTECH D1000), SD rat liver microsome (XENOTECH R1000), and CD-i mouse liver microsome (XENOTECH M1000) • 2. Na2HPO4 (Tianjin Guangfu Fine Chemical Research Institute 20180130) • 3. KH2PO4 (Tianjin Guangfu Fine Chemical Research Institute 20180920) • 4. MgCl2 (Tianjin Guangfu Fine Chemical Research Institute 20191216) • 5. NADPH (Solarbio 1216C022) • 6. Positive control compound verapamil (Sigma MKBV4993V) • 7. AB Sciex API4000 liquid chromatography-mass spectrometry system
(§1) 1. Preparation of 100 mMV phosphate-buffered saline (PBS): 7.098 g Na2HPO4 was weighed. 500 mL pure water was added. The mixture was dissolved by sonication to give solution A. 3.400 g KH2PO4 was weighed. 250 mL pure water was added. The mixture was dissolved by sonication to give solution B. The solution A was placed in a stirrer, and the solution B was slowly added until the pH reached 7.4, so that the 100 mM PBS buffer was prepared.
2. Preparation of reaction system
The reaction system was prepared as follows:
3. The reaction system was pre-incubated in a 37° C. water bath for 10 min. 40 μL of 10 mM NADPH solution (NADPH was dissolved by 100 mM phosphate-buffered saline) was added to the reaction system with a final concentration of NADPH being 1 mM. A negative control was made by replacing the NADPH solution with 40 μL phosphate-buffered saline. The negative control was used to exclude the effect of chemical stability of the compound itself.
4. The reaction was initiated by adding 4 μL of 100 μM of the compound of the present application and verapamil, the positive control compound, to the reaction system with a final concentration of the compound being 1 μM.
5. After being uniformly mixed in a vortex oscillator, 50 μL incubation sample was respectively taken out at 0.5, 15, 30, 45, and 60 min, and the reaction was stopped by 200 μL glacial acetonitrile containing an internal standard. The sample was centrifuged at 3220 g for 45 min. 90 μL of the supernatant was transferred to a feeding plate after the centrifugation was completed, and 90 μL ultrapure water was added. The mixture was well mixed for LC-MS/MS analysis.
All data were calculated by Microsoft Excel software. The peak area was detected through an extracted ion chromatogram. The in vitro half-life (t1/2) of the compound was determined by linear fitting of the natural logarithm of compound elimination percentage over time.
In vitro half-life (t1/2) was calculated by the slope: […]
The in vitro intrinsic clearance (in μL/min/mg protein) was calculated using the following formula:
in vitro CLint=k×volume of incubation (μL)/amount of proteins (mg)
CLint was intrinsic clearance; k was an elimination rate constant; volume of incubation was the incubation volume (μL); amount of proteins was the amount of protein (mg)

CYP2C9 = CYP2C9 (Homo sapiens (Human), UniProt P11712); assay: CYP2C9 inhibition in human liver microsomes (diclofenac substrate); type: in vitro ADME; settings: human liver microsome
Method: Test Example 7. Inhibitory Effect of Compound of the Present Application on Enzymatic Activity of CYP2C9, CYP2D6, and CYP3A4
The inhibition of CYP2C9, CYP2D6, and CYP3A4 activity by the compound of the present application was determined using the following method.
I. Experimental materials and instruments • 1. Human liver microsome (Corning 452117) • 2. NADPH (Solarbio 705Y021) • 3. Positive substrates diclofenac (Sigma SLBV3438), dextromethorphan (TRC 3-EDO-175-1), and midazolam (Cerilliant FE01161704) • 4. Positive inhibitors sulfaphenazole (D. Ehrenstorfer GmbH 109012), quinidine (TCI WEODL-RE), and ketoconazole (Sigma 100M1091V) • 5. AB Sciex Triple Quad 5500 liquid chromatography-mass spectrometry system
as §1, with “mM” for “mMV”
2. A 10 mM NADPH solution was prepared with a 100 mM PBS buffer. A 10 mM stock solution of the compound of the present application was diluted with DMSO to give a compound working solution at a concentration of 200×(6000, 2000, 600, 200, 60, 20, and 0 μM). The positive inhibitor stock solution was diluted with DMSO to give a positive inhibitor working solution at a concentration of 200×(sulfaphenazole, 1000, 300, 100, 30, 10, 3, and 0 μM; quinidine/ketoconazole, 100, 30, 10, 3, 1, 0.3, and 0 μM). Substrate working solutions (120 μM diclofenac, 400 μM dextromethorphan, and 200 μM midazolam) at a concentration of 200× were prepared with water, acetonitrile, or acetonitrile/methanol.
3. 2 μL of 20 mg/mL liver microsome solution, 1 μL of substrate working solution, 1 μL of compound working solution, and 176 μL of PBS buffer were taken, mixed well, and placed in a 37° C. water bath for pre-incubation for 15 min. 1 μL of sulfaphenazole, quinidine, or ketoconazole working solution was added to the positive control group instead of the compound working solution. At the same time, 10 mM NADPH solution was placed together in the 37° C. water bath for pre-incubation for 15 min. After 15 min, 20 μL of NADPH was added to each well to initiate the reaction. The mixture was incubated at 37° C. for 5 min (CYP2C9), 20 min (CYP2D6), or 5 min (CYP3A4). All incubated samples were in duplicate. After incubation for the corresponding period of time, 400 μL of icy methanol containing internal standard was added to all samples to stop the reaction. The mixture was vortexed, mixed well, and centrifuged for 40 min at 4° C. at 3220 g. 100 μL of the supernatant was transferred to a feeding plate after the centrifugation was completed, and 100 μL ultrapure water was added. The mixture was well mixed for LC-MS/MS analysis.
The reduction of metabolite production in the treatment groups versus the control group was compared by the peak area ratios of the sample to the internal standard, and the IC50 value was calculated using Excel XLfit 5.3.1.3.
Percentages of remaining activity were calculated according to the following formula:
Remaining activity%=peak area ratio of metabolite to internal standardtest sample/peak area ratio of metabolite to internal standardblank solvent×100%.

Chain of CYP2C9 (P11712 whole entry): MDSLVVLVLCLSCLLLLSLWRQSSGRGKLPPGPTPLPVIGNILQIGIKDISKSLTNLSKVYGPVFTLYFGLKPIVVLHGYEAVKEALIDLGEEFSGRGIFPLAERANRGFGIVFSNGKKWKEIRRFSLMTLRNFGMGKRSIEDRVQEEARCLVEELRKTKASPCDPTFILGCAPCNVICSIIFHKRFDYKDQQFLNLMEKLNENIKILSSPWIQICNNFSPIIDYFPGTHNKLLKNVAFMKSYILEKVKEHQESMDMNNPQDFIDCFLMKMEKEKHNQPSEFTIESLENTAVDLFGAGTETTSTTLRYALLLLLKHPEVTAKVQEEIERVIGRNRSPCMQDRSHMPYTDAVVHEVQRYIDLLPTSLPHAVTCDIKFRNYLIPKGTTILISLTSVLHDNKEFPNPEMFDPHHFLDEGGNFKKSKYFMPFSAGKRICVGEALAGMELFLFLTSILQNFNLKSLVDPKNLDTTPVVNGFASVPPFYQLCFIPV

SMILES: Cc1ncccc1-n1c(=O)c2ncn(C)c2c2ccc(C(F)(F)F)nc21 (atropisomer, axis not shown) [Compound 20, 1-methyl-5-(2-methylpyridin-3-yl)-7-(trifluoromethyl)-1,5-dihydro-4H-imidazo[4,5-c][1,8]naphthyridin-4-one]
- half-life at 1 μM [1]: > 5 h
- IC50 (CYP2C9): > 30 µM

SMILES: Cn1cnc2c(=O)n(-c3cccnc3C3CC3)c3cc(Cl)ccc3c21 (single isomer, unassigned) [Compound 49-P2, 7-chloro-5-(2-cyclopropylpyridin-3-yl)-1-methyl-1,5-dihydro-4H-imidazo[4,5-c]quinolin-4-one]
- half-life at 1 μM [1]: 3.78 h
- IC50 (CYP2C9): > 30 µM

SMILES: Cc1ncccc1-n1c(=O)c2ncoc2c2ccc(C(F)(F)F)nc21 [Compound 40, 5-(2-methylpyridin-3-yl)-7-(trifluoromethyl)oxazolo[4,5-c][1,8]naphthyridin-4(5H)-one]
- half-life at 1 μM [1]: > 5 h
- IC50 (CYP2C9): > 30 µM

SMILES: Cn1cnc2c(=O)n(-c3cccnc3C3CC3)c3cc(C(F)(F)F)ccc3c21 (single isomer, unassigned) [Compound 48-P2, 5-(2-cyclopropylpyridin-3-yl)-1-methyl-7-(trifluoromethyl)-1,5-dihydro-4H-imidazo[4,5-c]quinolin-4-one]
- half-life at 1 μM [1]: > 5 h
- IC50 (CYP2C9): > 30 µM

SMILES: Cn1cnc2c(=O)n(-c3cccc(F)c3Cl)c3cc(Cl)ccc3c21 [Compound 39, 7-chloro-5-(2-chloro-3-fluorophenyl)-1-methyl-1,5-dihydro-4H-imidazo[4,5-c]quinolin-4-one]
- IC50 (CYP2C9): > 30 µM

SMILES: Cn1cnc2c(=O)n(-c3cccc(F)c3Cl)c3nc(C(F)(F)F)ccc3c21 (atropisomer, axis not shown) [Compound 25, 5-(2-chloro-3-fluorophenyl)-1-methyl-7-(trifluoromethyl)-1,5-dihydro-4H-imidazo[4,5-c][1,8]naphthyridin-4-one]
- half-life at 1 μM [1]: > 5 h
- IC50 (CYP2C9): > 30 µM

SMILES: Cn1cnc2c(=O)n(-c3cccc(F)c3Cl)c3nc(C(F)(F)F)ccc3c21 (single isomer, unassigned) [Compound 25-P2, 5-(2-chloro-3-fluorophenyl)-1-methyl-7-(trifluoromethyl)-1,5-dihydro-4H-imidazo[4,5-c][1,8]naphthyridin-4-one]
- half-life at 1 μM [1]: > 5 h
- IC50 (CYP2C9): > 30 µM

SMILES: O=c1c2ncoc2c2ccc(C(F)(F)F)nc2n1-c1cccnc1C1CC1 (single isomer, unassigned) [Compound 81-P2, 5-(2-cyclopropylpyridin-3-yl)-7-(trifluoromethyl)oxazolo[4,5-c][1,8]naphthyridin-4(5H)-one]
- half-life at 1 μM [1]: > 5 h
- IC50 (CYP2C9): > 30 µM

SMILES: Cn1cnc2c(=O)n(-c3cccnc3C3CC3)c3nc(C(F)(F)F)ccc3c21 (single isomer, unassigned) [Compound 42-P2, 5-(2-cyclopropylpyridin-3-yl)-1-methyl-7-(trifluoromethyl)-1,5-dihydro-4H-imidazo[4,5-c][1,8]naphthyridin-4-one]
- half-life at 1 μM [1]: 4.26 h
- IC50 (CYP2C9): > 30 µM

SMILES: Cn1cnc2c(=O)n(-c3cccnc3C(F)(F)F)c3nc(C(F)(F)F)ccc3c21 (single isomer, unassigned) [Compound 41-P2, 1-methyl-7-(trifluoromethyl)-5-(2-(trifluoromethyl)pyridin-3-yl)-1,5-dihydro-4H-imidazo[4,5-c][1,8]naphthyridin-4-one]
- half-life at 1 μM [1]: > 5 h
- IC50 (CYP2C9): > 30 µM

SMILES: Cc1ncccc1-n1c(=O)c2ncn(C)c2c2ccc(C(F)(F)F)cc21 [Compound 45, 1-methyl-5-(2-methylpyridin-3-yl)-7-(trifluoromethyl)-1,5-dihydro-4H-imidazo[4,5-c]quinolin-4-one]
- half-life at 1 μM [1]: > 5 h
- IC50 (CYP2C9): > 30 µM
